# Source: US8957032B2, “Inhibition of gliadin peptides” (Alba Therapeutics Corporation, priority 2008, dated 2015)
# Ends that are not written are not given here. * marks the point of attachment. FITC = O=C1OC2(c3ccc(O)cc3Oc3cc(O)ccc32)c2ccc(NC(=S)*)cc21
# Key:
# [1] = tested on: intestinal tissue; details: ex vivo human tissue and mice; background section; cited from earlier work
# [2] = tested on: PBMCs; assay: Cytokine expression in PBMCs treated with PTG or LPS (ELISA); assay type: cell-based, human; details: PTG 1 mg/ml or LPS 1 μg/ml
# Description: PBMCs were suspended in RPMI medium supplemented with 5% heat inactivated human AB serum, and 2×10^5 cells were plated in each well of a 96 well plate. Cells were incubated at 37° C. with PTG (1 mg/ml) or LPS (1 μg/ml) in the presence or absence of test compounds being examined for the ability to suppress cytokine production. Supernatant samples were harvested following treatment, and cytokines were assayed by ELISA (R&D Systems).
# [3] = tested on: CaCO2 cell monolayer; assay: Permeability of a CaCO2 cell monolayer to a gliadin fragment; assay type: cell-based
# Text: (§1) The inventors have discovered that peripheral blood mononuclear cells (PBMCs) secrete signals that increase epithelial monolayer permeability on response to stimulation with lipopolysaccharide […] and pepsin/trypsin treated gliadin (PTG). These secreted signals are present in PBMC culture supernatant, and they increase permeability of CaCO2 cell monolayers to Lucifer yellow when presented to the basolateral aspect of these cells. These permeability changes are inhibited by treatment of the cells with peptide permeability inhibitors of the invention (FIGS. 5A, 5B, 6A, 6B, 7A, 7B, 8A and 8B). The inventors have also discovered that specific peptides within the PTG mixture are capable of crossing epithelial cell monolayers in vitro, and that this peptide specific mechanism can be inhibited by peptide permeability inhibitors of the invention (FIGS. 3 and 4).
# [4] = tested on: CaCO2 cells; assay: Lucifer yellow permeability of CaCO2 cells exposed basolaterally to PBMC culture supernatants; assay type: cell-based; details: donors 00022, 00023, 00064, 00065; for Effect on baseline permeability to Lucifer yellow: control and untreated PBMC supernatant, measured after 72 hours; for Effect on permeability changes induced by LPS treated PBMC supernatant / Effect on permeability changes induced by PTG treated PBMC supernatant: Lucifer yellow measured after 72 hours
# Description: After formation of tight junctions CaCO2 cells were exposed basolaterally to control supernatant (control), untreated PBMC supernatant (PBMC sup), LPS treated PBMC supernatant (PBMC-LPS) and PTG treated PBMC supernatant (PBMC-PTG). Lucifer yellow permeability was measured after 72 hours (day 3).
# After formation of tight junctions CaCO2 cells were exposed basolaterally to PBMC supernatants as described above. […]
# as §1
# [5] = inhibitor added apically after 48 hours (day 2)
# [6] = inhibitor added apically on day 0
substance,measurement,setting,value
GGVLVQPG [SEQ ID NO:1],Gliadin induced reduction in intestinal Rt (resistance),[1],inhibits
same,Peak of F-actin increment induced by gliadin,[1],blocks
same,"Effect on expression of IL-6, IL-8, MIP-1α and Gro-α induced by LPS and PTG",[2],not reduced
same,Effect on increased expression of GM-CSF and IL-16 induced by LPS and PTG,[2],inhibited
same,Effect on increase in permeability to gliadin peptide PYPQPQLPY (SEQ ID NO:163),"[3]; FIG. 3, apical exposure to gliadin peptide, apical treatment with inhibitor",blocked
same,Effect on increase in permeability induced by gliadin peptide,"[3]; FIG. 4, apical exposure to FITC-C6-PYPQPQLPY, 13-mer gliadin peptide SEQ ID NO:164 named in legend",blocked
same,Effect on baseline permeability to Lucifer yellow,[4]; [5],abolished
same,Effect on baseline permeability to Lucifer yellow,[4]; [6],abolished
same,Effect on permeability changes induced by LPS treated PBMC supernatant,[4]; [5],significantly reduced
same,Effect on permeability changes induced by PTG treated PBMC supernatant,[4]; [5],significantly reduced
same,Effect on permeability changes induced by LPS treated PBMC supernatant,[4]; [6],no significant effect
same,Effect on permeability changes induced by PTG treated PBMC supernatant,[4]; [6],no significant effect
"FITC-C6-PYPQPQLPY ({FITC-C6}-PYPQPQLPY) [gliadin peptide, FITC-labelled, reference compound]",Permeability of the monolayer,"[3]; FIG. 4, apical exposure of the monolayer to the gliadin peptide",increase in permeability
"PYPQPQLPY (listed as Triticum sp.) [SEQ ID NO:163, gliadin peptide]",Permeability of the monolayer to the gliadin peptide,"[3]; FIG. 3, apical exposure of the monolayer to the gliadin peptide",increase in permeability
